Data on two molecules can be found in ChEMBL document CHEMBL5726115, “Triazolo compounds” (2017).

The experiment deals with cAMP and cAMP-inhibited cGMP 3',5'-cyclic phosphodiesterase 10A (Homo sapiens, UniProt Q9Y233). Description: Inhibition Assay: The human PDE10A full length assay was performed in 96-well micro titer plates. The reaction mixture of 50 μl contained 20 mM HEPES pH=7.5/10 mM MgCl2/0.05 mg/ml BSA (Sigma cat. #A-7906), 50 nM cGMP (Sigma, cat. #G6129) and 50 nM [3H]-cGMP (GE Healthcare, cat. #TRK392 S.A. 13.2 Ci/mmol), 3.75 ng/well PDE10A enzyme (Enzo Life Science, Lausen, Switzerland cat #SE-534) with or without a specific test compound. A range of concentrations of the potential inhibitor was used to generate data for calculating the concentration of inhibitor resulting in 50% of the effect (e.g. IC50, the concentration of the competitor inhibiting PDE10A activity by 50%). Non-specific activity was tested without the enzyme. The reaction was initiated by the addition of the substrate solution (cGMP and [3H]-cGMP) and allowed to progress for 20 minutes at room temperature. The reaction was terminated by adding 25 μl of YSi-SPA scintillation beads (GE Healthcare, cat. #RPNQ0150) in 18 mM zinc sulphate solution (stop reagent). After 1 h under shaking, the plate was centrifuged one minute at 170 g to allow beads to settle. Afterwards, radioactive counts were measured on a Perkin Elmer TopCount Scintillation plate reader.
Chain of cAMP and cAMP-inhibited cGMP 3',5'-cyclic phosphodiesterase 10A (Q9Y233 whole entry): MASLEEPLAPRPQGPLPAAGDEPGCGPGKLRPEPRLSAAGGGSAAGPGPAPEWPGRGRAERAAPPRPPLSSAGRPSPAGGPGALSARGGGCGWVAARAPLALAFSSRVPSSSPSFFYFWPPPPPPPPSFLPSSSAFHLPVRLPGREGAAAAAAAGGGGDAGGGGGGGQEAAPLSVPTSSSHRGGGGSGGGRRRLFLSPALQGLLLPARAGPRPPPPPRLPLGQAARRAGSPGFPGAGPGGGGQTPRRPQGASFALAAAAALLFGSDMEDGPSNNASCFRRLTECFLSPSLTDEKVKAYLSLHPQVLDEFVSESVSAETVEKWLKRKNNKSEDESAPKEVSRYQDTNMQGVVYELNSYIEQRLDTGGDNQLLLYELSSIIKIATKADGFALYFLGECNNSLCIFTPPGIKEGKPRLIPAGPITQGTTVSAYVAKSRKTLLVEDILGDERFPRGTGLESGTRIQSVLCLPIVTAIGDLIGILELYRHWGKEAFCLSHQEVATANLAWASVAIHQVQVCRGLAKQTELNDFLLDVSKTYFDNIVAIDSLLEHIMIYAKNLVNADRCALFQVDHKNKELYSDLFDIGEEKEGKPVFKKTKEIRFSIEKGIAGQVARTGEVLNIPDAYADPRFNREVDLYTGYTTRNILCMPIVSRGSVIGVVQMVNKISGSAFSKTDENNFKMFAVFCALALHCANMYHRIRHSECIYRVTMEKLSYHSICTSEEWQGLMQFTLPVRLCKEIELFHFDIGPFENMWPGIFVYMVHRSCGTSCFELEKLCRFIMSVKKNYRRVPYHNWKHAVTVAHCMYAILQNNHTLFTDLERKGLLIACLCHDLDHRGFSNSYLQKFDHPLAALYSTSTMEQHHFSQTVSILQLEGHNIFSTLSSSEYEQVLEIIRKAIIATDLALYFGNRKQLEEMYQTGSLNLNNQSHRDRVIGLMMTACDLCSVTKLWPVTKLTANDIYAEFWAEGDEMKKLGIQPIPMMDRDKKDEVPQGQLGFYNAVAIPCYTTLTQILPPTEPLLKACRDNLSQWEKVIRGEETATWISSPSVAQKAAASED

With `Cc1nc2cc(C(F)(F)F)c(CCc3nc(N4CCCC4)nn3C)nn2c1C`, the concentration for half-maximal inhibition (IC50) is 0.165 µM. In the case of `Cc1cn2nc(C)c(C)c2nc1C#Cc1nc(N2CCCC2)nn1C`, the IC50 was 0.0066 µM.

What is called IC50 is the concentration that gives 50% inhibition.
